According to patent US4109008A, “Hydrazine derivatives useful as anti-hypertensives” (Hexachimie, priority 1976, dated 1978):

Test system: male rats exhibiting a spontaneous genetically transmissible hypertension
Test: Systolic arterial pressure and rate of heartbeat in spontaneously hypertensive rats after intraperitoneal administration
Type: in vivo
Conditions: Rattus norvegicus, ip, 0.5 h, 40 mg/kg given intraperitoneally, T + 30 mins, read-out: percentage variation and mean deviation of the systolic arterial pressure, T + 30 mins
Method: The arterial pressure is measured by a "Narco Bio System" sphygmomanometer. A sleeve is placed over the base of the tail and a detector records the pulse downstream from the sleeve. The sleeve is then inflated until the pulse is stopped, thus indicating the systolic pressure. The rate of heartbeat is also recorded. The products to be studied are converted to a suspension by means of "Tween 80" and administered intraperitoneally in a volume of 1 cm^3 per 100 grams of body weight. The measurements are repeated at regular intervals.

Structure (SMILES)	change in vivo at 40 mg/kg
Cn1c(=O)n(C)c2cc(C=NNC3=NCCN3)ccc21 [Example 12, N-(1,3-Dimethyl-2-Oxo-5-Benzimidazolylidene)-N'-Imidazolino-Hydrazine]	-39 ± 7.4%
C#CCOc1ccccc1C=NNC(=N)N [Example 1, N-[o-(Prop-2-Y-noxy)-Benzylidene]-N'-Amidino-Hydrazine]	-52 ± 3.4%
